{"source": "patent US9387204B2", "about": "“Fused bicyclic imidazoles” (BAYER INTELLECTUAL PROPERTY GmbH, priority 2007, dated 2016)"}
{"system": "A549 cells", "assay": "Cellular proliferation/cytotoxicity assay (Alamar Blue), A549 cells", "conditions": "Homo sapiens, A549, 72 h, read-out: Anti-proliferative/Cytotoxic activity (A549 cells)", "units": {"IC50": "µM"}}
{"compound": "c1ccc(-c2nnc(C3CCN(Cc4ccc(-c5nc6scnn6c5-c5ccccc5)cc4)CC3)[nH]2)cc1", "note": "[Example 123, 5-phenyl-6-(4-{[4-(5-phenyl-4H-1,2,4-triazol-3-yl)piperidin-1-yl]methyl}phenyl)imidazo[2,1-b][1,3,4]thiadiazole]", "IC50": "< 10"}
{"compound": "Cc1nn2c(-c3ccccc3)c(-c3ccc(CN4CCC(c5nnc(-c6ccccn6)[nH]5)CC4)cc3)nc2s1", "note": "[Example 45, 2-methyl-5-phenyl-6-[4-({4-[5-(pyridin-2-yl)-4H-1,2,4-triazol-3-yl]piperidin-1-yl}methyl)phenyl]imidazo[2,1-b][1,3,4]thiadiazole]", "IC50": "> 10"}
{"compound": "c1ccc(-c2nc(C3CCN(Cc4ccc(-c5nc6ncccn6c5-c5cccs5)cc4)CC3)n[nH]2)nc1", "note": "[Example 35, 2-(4-{[4-(5-pyridin-2-yl-1,2,4-triazol-3-yl)piperidin-1-yl]methyl}phenyl)-3-(2-thienyl)imidazo[1,2-a]pyrimidine]", "IC50": "> 10"}
{"compound": "c1ccc(-c2nc(C3CCN(Cc4ccc(-c5nc6ncccn6c5-c5ccncc5)cc4)CC3)n[nH]2)nc1", "note": "[Example 36, 3-pyridin-4-yl-2-(4-{[4-(5-pyridin-2-yl-1,2,4-triazol-3-yl)piperidin-1-yl]methyl}phenyl)imidazo[1,2-a]pyrimidine]", "IC50": "> 10"}
{"compound": "NC(=O)c1ccn2c(-c3ccccc3)c(-c3ccc(CN4CCC(c5n[nH]c(-c6ccccn6)n5)CC4)cc3)nc2c1", "note": "[Example 38, 3-phenyl-2-(4-{[4-(5-pyridin-2-yl-1,2,4-triazol-3-yl)piperidin-1-yl]methyl}phenyl)imidazo[1,2-a]pyridine-7-carboxamide]", "IC50": "> 10"}
{"compound": "c1ccc(-c2c(-c3ccc(CN4CCC(c5n[nH]c(-c6ccccn6)n5)CC4)cc3)nc3scnn23)cc1", "note": "[Example 11, 5-phenyl-6-(4-{[4-(5-pyridin-2-yl-1,2,4-triazol-3-yl)piperidin-1-yl]methyl}phenyl)imidazo[2,1-b][1,3,4]thiadiazole]", "IC50": "< 10"}
{"compound": "c1ccc(-c2c(-c3ccc(CN4CCC(c5n[nH]c(-c6ccccn6)n5)CC4)cc3)nc3sccn23)cc1", "note": "[Example 10, 5-phenyl-6-(4-{[4-(5-pyridin-2-yl-1,2,4-triazol-3-yl)piperidin-1-yl]methyl}phenyl)imidazo[2,1-b][1,3]thiazole]", "IC50": "< 10"}
{"compound": "Cc1cccn2c(-c3ccccc3)c(-c3ccc(CN4CCC(c5n[nH]c(-c6ccccn6)n5)CC4)cc3)nc12", "note": "[Example 8, 8-methyl-3-phenyl-2-(4-{[4-(5-pyridin-2-yl-1,2,4-triazol-3-yl)piperidin-1-yl]methyl}phenyl)imidazo[1,2-a]pyridine]", "IC50": "< 10"}
{"compound": "COc1ccc(-c2c(-c3ccc(CN4CCC(c5n[nH]c(-c6ccccn6)n5)CC4)cc3)nc3ncccn23)cc1", "note": "[Example 20, 3-(4-methoxyphenyl)-2-(4-{[4-(5-pyridin-2-yl-1,2,4-triazol-3-yl)piperidin-1-yl]methyl}phenyl)imidazo[1,2-a]pyrimidine]", "IC50": "> 10"}
{"compound": "Cc1ccc2nc(-c3ccc(CN4CCC(c5nnc(-c6ccccc6)[nH]5)CC4)cc3)c(-c3ccccc3)n2n1", "note": "[Example 119, 6-methyl-3-phenyl-2-(4-{[4-(5-phenyl-4H-1,2,4-triazol-3-yl)piperidin-1-yl]methyl}phenyl)imidazo[1,2-b]pyridazine]", "IC50": "< 10"}
{"system": "A549 cells", "assay": "Cellular proliferation/cytotoxicity assay (Alamar Blue), A549 cells", "conditions": "read-out: Anti-proliferative/Cytotoxic activity (A549 cells); A549 cells, 72 h, Alamar Blue (Resazurin)", "units": {"IC50": "µM"}}
{"compound": "c1ccc(-c2c(-c3ccc(CN4CCC(c5nnc(-c6ncccn6)[nH]5)CC4)cc3)nc3ccccn23)cc1", "note": "[Example 80, ′3-phenyl-2-(4-{[4-(5-pyrimidin-2-yl-4H-1,2,4-triazol-3-yl)piperidin-1-yl]methyl}phenyl)imidazo[1,2-a]pyridine]", "IC50": "> 10"}
{"compound": "Clc1ccn2c(-c3ccccc3)c(-c3ccc(CN4CCC(c5nnc(-c6ccc[nH]6)[nH]5)CC4)cc3)nc2c1", "note": "[Example 107, ′7-chloro-3-phenyl-2-[4-({4-[5-(1H-pyrrol-2-yl)-4H-1,2,4-triazol-3-yl]piperidin-1-yl}methyl)phenyl]imidazo[1,2-a]pyridine]", "IC50": "< 10"}
{"compound": "N#Cc1cccn2c(-c3ccccc3)c(-c3ccc(CN4CCC(c5nnc(-c6ccco6)[nH]5)CC4)cc3)nc12", "note": "[Example 90, ′2-[4-({4-[5-(2-furyl)-4H-1,2,4-triazol-3-yl]piperidin-1-yl}methyl)phenyl]-3-phenylimidazo[1,2-a]pyridine-8-carbonitrile]", "IC50": "> 10"}
{"compound": "c1ccc(-c2c(-c3ccc(CN4CCC(c5n[nH]c(-c6ccncc6)n5)CC4)cc3)nc3ncccn23)cc1", "note": "[Example 55, ′3-phenyl-2-(4-{[4-(5-pyridin-4-yl-1H-1,2,4-triazol-3-yl)piperidin-1-yl]methyl}phenyl)imidazo[1,2-a]pyrimidine]", "IC50": "> 10"}
{"compound": "c1ccc(-c2c(-c3ccc(CN4CCC(c5cc(-c6ccccn6)[nH]n5)CC4)cc3)nc3scnn23)cc1", "note": "[Example 112, ′5-phenyl-6-(4-{[4-(5-pyridin-2-yl-1H-pyrazol-3-yl)piperidin-1-yl]methyl}phenyl)imidazo[2,1-b][1,3,4]thiadiazole]", "IC50": "< 10"}
{"compound": "c1ccc(-c2c(-c3ccc(CN4CCC(c5nnc(-c6nccs6)[nH]5)CC4)cc3)nc3sccn23)cc1", "note": "[Example 87, ′5-phenyl-6-[4-({4-[5-(1,3-thiazol-2-yl)-4H-1,2,4-triazol-3-yl]piperidin-1-yl}methyl)phenyl]imidazo[2,1-b][1,3]thiazole]", "IC50": "< 10"}
{"compound": "O=C(O)c1cn2c(-c3ccccc3)c(-c3ccc(CN4CCC(c5nnc(-c6ccccn6)[nH]5)CC4)cc3)nc2s1", "note": "[Example 127, ′5-phenyl-6-(4-{[4-(5-pyridin-2-yl-4H-1,2,4-triazol-3-yl)piperidin-1-yl]methyl}phenyl)imidazo[2,1-b][1,3]thiazole-2-carboxylic acid]", "IC50": "> 10"}
{"compound": "Cc1ccc2nc(-c3ccc(CN4CCC(c5nnc(-c6cccs6)[nH]5)CC4)cc3)c(-c3ccccc3)n2n1", "note": "[Example 99, ′6-methyl-3-phenyl-2-[4-({4-[5-(2-thienyl)-4H-1,2,4-triazol-3-yl]piperidin-1-yl}methyl)phenyl]imidazo[1,2-b]pyridazine]", "IC50": "< 10"}
{"compound": "Cc1ccc2nc(-c3ccc(CN4CCC(c5nnc(-c6ccccn6)[nH]5)CC4)cc3)c(-c3ccccc3)n2n1", "note": "[Example 53, ′6-methyl-3-phenyl-2-(4-{[4-(5-pyridin-2-yl-4H-1,2,4-triazol-3-yl)piperidin-1-yl]methyl}phenyl)imidazo[1,2-b]pyridazine]", "IC50": "< 10"}
{"compound": "N#Cc1cccn2c(-c3ccccc3)c(-c3ccc(CN4CCC(c5n[nH]c(-c6ccc(Cl)cn6)n5)CC4)cc3)nc12", "note": "[Example 75, ′2-[4-({4-[5-(5-chloropyridin-2-yl)-1H-1,2,4-triazol-3-yl]piperidin-1-yl}methyl)phenyl]-3-phenylimidazo[1,2-a]pyridine-8-carbonitrile]", "IC50": "> 10"}
{"compound": "N#Cc1ccn2c(-c3ccccc3)c(-c3ccc(CN4CCC(c5noc(-c6ccccn6)n5)CC4)cc3)nc2c1", "note": "[Example 115, ′3-phenyl-2-(4-{[4-(5-pyridin-2-yl-1,2,4-oxadiazol-3-yl)piperidin-1-yl]methyl}phenyl)imidazo[1,2-a]pyridine-7-carbonitrile]", "IC50": "> 10"}
{"compound": "c1ccc(-c2c(-c3ccc(CN4CCC(c5noc(-c6ccccn6)n5)CC4)cc3)nc3ncccn23)cc1", "note": "[Example 116, ′3-phenyl-2-(4-{[4-(5-pyridin-2-yl-1,2,4-oxadiazol-3-yl)piperidin-1-yl]methyl}phenyl)imidazo[1,2-a]pyrimidine]", "IC50": "< 10"}
